In patent US11235001B2, “RUNX inhibitor” (KYOTO UNIVERSITY, priority 2016, dated 2022):
Read-outs that look alike come from different tables or passages of the source.

Columns and labels:
[1] = test system: MV4-11NR
[2] = test system: GATA2, E2F5, and AR; test: qRT-PCR of prostatic adenocarcinoma-related factors in PC-3; assay type: cell-based, human; details: PC-3, 5 μM, 6 hours
Procedure: A total RNA was isolated with RNeasy mini kit (Qiagen) and reverse transcribed with Reverse script kit (TOYOBO) to generate cDNA. Real-time quantitative polymerase chain reaction (PCR) was carried out with 7500 Real-Time PCR System (Applied Biosystems) according to the manufacturer's instructions. Results were normalized to GAPDH levels. Relative expression levels were calculated using the 2-ΔΔCt method.
To prostatic adenocarcinoma cell line PC-3, 5 μM Chb-M′ was administered. After 6 hours, the mRNA levels of GATA2, E2F5, and AR (androgen receptors), which are important genes for proliferation of prostate cancer cells, were evaluated by qRT-PCR (see the above-described “Real-time quantitative PCR (qRT-PCR)”). As a control, DMSO was administered. In the figure, the mRNA expression levels of GATA2, E2F5, and AR are shown as values relative to those in the DMSO-treated group. As evident from FIG. 45, the expressions of GATA2, E2F5, and AR were suppressed by Chb-M′ at transcriptional levels.

[3] = test system: E-selectin, P-selectin, Tie2, ICAM-1, VCAM-1, Jagged-1; test: qRT-PCR of adhesion molecule genes in HUVEC; assay type: cell-based, human; details: 0.5 μM, 1 μM, or 5 μM, 6 hours
[4] = test system: ABC-1; test: Cell viability, lung adenocarcinoma ABC-1; assay type: cell-based, human; details: ABC-1 (EGFR wild-type p53-mutated), 48 hours
[5] = test system: Mig6; test: Western blotting of Mig6 in lung adenocarcinoma cells; assay type: cell-based, human; details: 1 μM, 24 hours
Procedure: Cells were washed twice with ice cold phosphate-buffered saline (PBS) and harvested in protein lysis buffer [50 mM Tris (pH 7.4), 100 mM NaCl, 0.1 mM EDTA, 1 mM phenylmethylsulfonyl fluoride, 1 mM β-glycerophosphate, 2.5 mM sodium pyrophosphate, 1 mM Na3VO4, lx protease inhibitor (Roche) and PhosSTOP (Roche)]. Whole cell extracts were separated by SDS-polyacrylamide gel electrophoresis (SDS-PAGE) and electrotransferred onto polyvinylidene difluoride membranes. […] Blots were detected using Chemi-Lumi One Super (nacalai tesque, Inc.) and ChemiDoc™ XRS+ Imager (Bio-Rad Laboratories, Inc.), as recommended by the manufacturers. Protein levels were quantified with Image Lab Software (Bio-Rad Laboratories, Inc.).
To LU99A cells and A549 cells, 1 μM Chb-M′ was administered. After 24 hours, the expression of Mig6 protein was evaluated by the Western blotting method (see the above-described “Immunoblotting”). […]

[6] = test system: NB4 (p53MT)
[7] = test system: A549; test: Cell viability, lung adenocarcinoma A549; assay type: cell-based, human; details: A549 (EGFR wild-type p53 wild-type), 48 hours
[8] = test system: MLL-ENL leukemia cells; test: Homing assay of MLL-ENL leukemia cells; assay type: in vivo, mouse; details: B6 mice, 320 μg/kg, 6 times over 2 weeks; 24 hours after cell injection
[9] = test system: HUVEC (human umbilical vein endothelial cell line); test: Proliferation of HUVEC; assay type: cell-based
[10] = test system: KG1a
[11] = test system: SU/SR cells; details: read-out: IC50 value; SU/SR (imatinib-resistant), 48 hours

CN(C)CCCNC(=O)c1cc(NC(=O)c2cc(NC(=O)c3cc(NC(=O)c4cc(NC(=O)CCCNC(=O)c5nc(NC(=O)c6nc(NC(=O)c7cc(NC(=O)c8nc(NC(=O)CCNC(=O)CCCc9ccc(N(CCCl)CCCl)cc9)cn8C)cn7C)cn6C)cn5C)cn4C)cn3C)cn2C)cn1C [Chb-M′]
CI (Fa = 0.5) ([1]; p53mut(+), concomitant use of Chb-M′ and PRIMA-1, Chou-Talalay, CI<1 synergism): 0.380 | IC50 ([1]; read-out: IC50 (μM) of Chb-M′ in concomitant use with PRIMA-1 (5 μM), p53mut(+), 48 hours, with 5 μM PRIMA-1): 0.00103 µM | IC50 ([1]; read-out: IC50 (μM) of Chb-M′ single agent administration, p53mut(+), 48 hours): > 100 µM | Expressions of GATA2, E2F5, and AR (mRNA) [2]: suppressed | E-selectin, P-selectin, and VCAM-1 mRNA levels [3]: markedly suppressed | IC50 compared with the EGFR inhibitor (gefitinib) [4]: lower IC50 values | Expression level of Mig6 protein ([5]; A549 cells): enhanced | Expression level of Mig6 protein ([5]; LU99A cells): enhanced | IC50 ([6]; culture time 48 hours): 357 nM | IC50 ([6]; culture time 72 hours): 44.6 nM | IC50 compared with the EGFR inhibitor (gefitinib) [7]: lower IC50 values | Number of MLL-ENL cells in bone marrow vs control group [8]: smaller | Number of leukemia cells in spleen [8]: increased | IC50 [9]: ≥ 50000 nM | CI (Fa = 0.5) ([10]; p53null, concomitant use of Chb-M′ and PRIMA-1, Chou-Talalay, CI<1 synergism): 2.01 | IC50 ([10]; read-out: IC50 (μM) of Chb-M′ in concomitant use with PRIMA-1 (5 μM), p53null, 48 hours, with 5 μM PRIMA-1): > 100 µM | IC50 ([10]; read-out: IC50 (μM) of Chb-M′ single agent administration, p53null, 48 hours): > 100 µM | IC50 [11]: 44 nM
